Data reported in patent publication US8519061B2, “Controlled release remediation system and composition” (North Carolina A&T State University, priority 2008, dated 2013).

Tested on: E. coli
Assay: E. coli colony counts, Membrane Filter Count Method, Country Park Lake water
Type: cell-based, Escherichia coli
Experimental: These pellets were used to evaluate the removal of Escherichia coli (commonly E. coli) from publicly accessible water. […] Recreational use of the publicly accessible water in this area is restricted due to high E. coli concentrations that can lead to illness.
Water samples including control water samples and publicly accessible water samples (from Country Park Lake) at concentrations of 1 ml, 0.1 ml, 0.01 ml, and 0.001 ml were prepared for evaluation.
The water samples were filtered through 5 μm filters and bacteria was cultured in petri dishes with m-Endo broth (e.g., commercially available form BD Diagnostic Systems Sparks, Md.) for 24-hours at 35° C. If E. coli was present in the filtered water sample, metallic purple/red E. coli colonies would grow on the filter in the petri dish. For this analysis, the larger the water sample filtered, the higher the concentration of E. coli which would grow within the 24-hour window. To analyze the amount of E. coli on the filter, the goal was to determine the appropriate water dilution amount to obtain filters where the number of colonies could be counted. If the filter was covered with E. coli, the petri dish was classified as “To numerous to count”. When an acceptable number of countable colonies was obtained, the number of colonies/100 ml was calculated for the water sample.

O=S(=O)([O-])OO.[K+] [Oxone ® compound, potassium hydrogen peroxymonosulfate sulfate (5:3:2:2)]
E. coli Colony Counts, 0.1 ml dilution plates: No colonies
E. coli Colony Counts, 1 ml dilution plates: No colonies
E. coli Colony Counts, Average 24 hours # colonies/100 ml: No colonies
Removal of E. coli from treated water: complete removal
